The values that follow come from ChEMBL document CHEMBL1124980, “2,4-Dihydro-3H-1,2,4-triazol-3-ones as anticonvulsant agents” (J Med Chem, 1990).

pIC50: −log10 of the molar value. Calls of active or inactive are those of the source. The rule behind the calls is not given here.

The test system of the first data set is Mus musculus. The data set is described as follows: Tested for inhibition of maximal electroshock -induced seizures in mice; Value is 1/8 of the LD50 range. The data set is classed as functional.
Conditions: not given
The compound `CCn1c(-c2cccc(C(F)(F)F)c2)nn(C)c1=O` displayed an Activity of 100 mg/kg.

For the next data set, the species on record is Mus musculus. The data set is described as follows: Tested for inhibition of bicuculline induced seizures in mice. The data set is classed as functional.
Conditions: not given
One may read the ED50 as the midpoint of the dose-response relation. As for `O=C1NC(=O)C(c2ccccc2)(c2ccccc2)N1` [PHENYTOIN], the ED50 was above 200 mg/kg.

A further data set deals with Mus musculus. The data set is described as follows: Tested for inhibition of quinoline-induced seizures in mice; g = maximum effect, 50% at 20 mg/kg. The data set is classed as functional, organism-based. The arrangement: dose 20 mg/kg.
Conditions: not given
Regarding `O=C1NC(=O)C(c2ccccc2)(c2ccccc2)N1` [PHENYTOIN], the ED50 result was “Active”.

The species named for the next data set is Mus musculus. The data set is described as follows: Tested for inhibition of 3-mercaptopropanoic acid induced seizures in mice.
Conditions: not given
The data set is classed as functional.
Compound `O=C1NC(=O)C(c2ccccc2)(c2ccccc2)N1` [PHENYTOIN] had an ED50 of 89 mg/kg.

The subject of the next data set is Mus musculus. The data set is described as follows: Tested for inhibition of pentylenetetrazole induced seizures in mice; Value is 1/16 of the LD50 range.
Conditions: not given
Format: functional.
With `CCn1nc(-c2ccc(Cl)cc2)n(C)c1=O`, the Activity is 50 mg/kg.
The compound `CCn1c(-c2cccc(C(F)(F)F)c2)nn(C)c1=O` showed an Activity of 50 mg/kg.

The next data set is filed under the species Mus musculus. The data set is described as follows: Tested for inhibition of strychnine-induced seizures in mice.
Conditions: not given
The data set is classed as functional.
`O=C1NC(=O)C(c2ccccc2)(c2ccccc2)N1` [PHENYTOIN]: the ED50 is above 200 mg/kg.

For a further data set, the system named is Mus musculus. The experiment in a line: Tested for inhibition of maximal electroshock -induced seizures in mice; Value is 1/4 of the LD50 range. The data set is classed as functional.
Conditions: not given
Background: The maximal electroshock test induces tonic seizures with an electrical stimulus.
`Cn1nc(-c2ccc(F)cc2)n(C)c1=O` came in with an Activity of 200 mg/kg.
`Cn1c(O)nnc1-c1ccc(Cl)c(Cl)c1` returned an Activity of 100 mg/kg.
Same read-out and setting: the result for `Cn1nc(-c2ccccc2Cl)n(C)c1=O` reads 200 mg/kg.

In a further data set the target is GABA-A receptor; anion channel. The experiment in a line: In vitro binding affinity for GABA-A receptor in rat cortical or hippocampal membranes using [3H]flunitrazepam.
Conditions: not given
For orientation: pIC50 means the negative decadic logarithm of the IC50, by convention in mol/L. A lower pIC50 goes with a large IC50. The compound `CCCCOc1cc(-c2nn(C)c(=O)n2C)ccc1OC` gave a pIC50 of 4.48.
`Cn1c(O)nnc1-c1ccc(Cl)c(Cl)c1` had a pIC50 below 4.00.
For `Cn1c(O)nnc1-c1cccs1`, the pIC50 was below 4.00.
The same measure, in the same setting: the value for `CCn1c(-c2cccc(C(F)(F)F)c2)nn(C)c1=O` was below 4.00.

The target in another data set is Glutamate NMDA receptor. The experiment in a line: Inhibition of [3H]CPP binding to N-methyl-D-aspartate glutamate receptor of rat cortical or hippocampal membranes. Format: cell membranes, Membrane.
Conditions: not given
In turn, `CCCCOc1cc(-c2nn(C)c(=O)n2C)ccc1OC` had a pIC50 below 4.00.
Same read-out and setting: the result for `Cn1c(O)nnc1-c1ccc(Cl)c(Cl)c1` reads below 4.00; that for `CN[C@H](CC(=O)O)C(=O)O` [N-METHYL-D-ASPARTIC ACID (NMDA)], 5.22.
Still for that read-out and setting: the result for `Cn1c(O)nnc1-c1cccs1` reads below 4.00; that for `CCn1c(-c2cccc(C(F)(F)F)c2)nn(C)c1=O`, below 4.00.

Test system in the next data set: not listed separately
The experiment in a line: Tested for acute toxicity in mice after intraperitoneal administration; Value ranges from 200-400 mg/kg. The data set is classed as organism-based. To be noted: mouse, in vivo, ip.
As a reminder, the LD50 is the dose at which mortality reaches 50%. `Cn1c(O)nnc1-c1ccc(Cl)c(Cl)c1` had an LD50 of 400 mg/kg.
For `CCn1c(O)nnc1-c1cccc(C(F)(F)F)c1`, the LD50 came to 400 mg/kg.
In turn, `Cn1c(O)nnc1-c1cccs1` displayed an LD50 of 400 mg/kg.

The species named for a further data set is Mus musculus. The data set is described as follows: Tested for inhibition of pentylenetetrazole induced seizures in mice. Format: functional.
Conditions: not given
In turn, `Cn1nc(-c2ccc(Cl)c(Cl)c2)n(C)c1=O` displayed an Activity of 50 mg/kg.
In turn, `O=C1NC(=O)C(c2ccccc2)(c2ccccc2)N1` [PHENYTOIN] displayed an ED50 above 32 mg/kg.

A further data set relates to Mus musculus. The experiment in a line: Tested for inhibition of pentylenetetrazole induced seizures in mice; Value is 1/4 of the LD50 range.
Conditions: not given
The data set is classed as functional.
As to `Cn1nc(-c2ccc(F)cc2)n(C)c1=O`, the Activity worked out at 200 mg/kg.
`Cn1c(O)nnc1-c1ccc(Cl)c(Cl)c1` yielded an Activity of 100 mg/kg.

In another data set the test system is Mus musculus. The experiment in a line: Tested for inhibition of pentylenetetrazole induced seizures in mice; Value is 1/8 of the LD50 range. Format: functional.
Conditions: not given
With `CCn1nc(-c2ccccc2)n(C)c1=O`, the Activity was found to be 100 mg/kg.
Same read-out and setting: the result for `CCCCOc1cc(-c2nn(C)c(=O)n2C)ccc1OC` reads 100 mg/kg.
On to `Cn1nc(-c2ccccc2Cl)n(C)c1=O`, for which the Activity worked out at 50 mg/kg.
`Cn1nc(-c2ccccc2F)n(C)c1=O`: the Activity was 100 mg/kg.
The same measure, in the same setting: the result for `CCn1c(O)nnc1-c1cccc(C(F)(F)F)c1` reads 50 mg/kg; that for `Cn1nc(-c2ccccc2)n(C)c1=O`, 100 mg/kg.

Test system in a further data set: not listed separately
The experiment in a line: Tested for acute toxicity in mice after intraperitoneal administration; Value ranges from 100-200 mg/kg. The data set is classed as organism-based. The note with it: mouse, in vivo, ip.
`Cn1nc(-c2ccccc2)n(C)c1=S` returned an LD50 of 200 mg/kg.
Same read-out and setting: the value for `CCCCOc1cc(-c2nnc(O)n2C)ccc1OC` was 200 mg/kg; that for `Cn1nc(-c2ccc(Cl)c(Cl)c2)n(C)c1=O` was 200 mg/kg.

The species named for a further data set is Mus musculus. The experiment in a line: Tested for inhibition of maximal electroshock -induced seizures in mice. Format: functional.
Conditions: not given
Take `Cn1nc(-c2ccc(Cl)c(Cl)c2)n(C)c1=O`: the Activity is 50 mg/kg.
Turning to `O=C1NC(=O)C(c2ccccc2)(c2ccccc2)N1` [PHENYTOIN], it took a dose of 26 mg/kg to reach the 50% effect level (ED50).

Test system in the next data set: not listed separately
The experiment in a line: Tested for acute toxicity in mice after intraperitoneal administration; Value ranges from 400-800 mg/kg. To be noted: mouse, in vivo, ip. Format: organism-based.
For the compound `CCn1nc(-c2ccccc2)n(C)c1=O`, the LD50 came to 800 mg/kg.
Same read-out and setting: the result for `COc1ccc(-c2nn(C)c(=O)n2C)cc1` reads 800 mg/kg; that for `CCCCOc1cc(-c2nn(C)c(=O)n2C)ccc1OC`, 800 mg/kg.
`Cn1nc(-c2ccc(F)cc2)n(C)c1=O` yielded an LD50 of 800 mg/kg.
Still for that read-out and setting: the value for `CCn1nc(-c2ccc(Cl)cc2)n(C)c1=O` was 800 mg/kg.
The same measure, in the same setting: the result for `Cn1nc(-c2ccccc2Cl)n(C)c1=O` reads 800 mg/kg; that for `Cn1nc(-c2ccccc2F)n(C)c1=O`, 800 mg/kg; that for `Cc1ccc(-c2nn(C)c(=O)n2C)cc1`, 800 mg/kg.
In turn, `Cn1nc(-c2ccccc2)n(C)c1=O` gave an LD50 of 800 mg/kg.
On the same count and under the same terms, the result for `CCCn1nc(-c2ccc(Cl)cc2)n(CC)c1=O` reads 800 mg/kg.
For the compound `CCn1nc(-c2cccs2)n(C)c1=O`, the LD50 came to 800 mg/kg.
The compound `CCn1c(-c2cccc(C(F)(F)F)c2)nn(C)c1=O` yielded an LD50 of 800 mg/kg.
The same measure, in the same setting: the value for `Cn1nc(-c2cccs2)n(C)c1=O` was 800 mg/kg.

The next data set concerns Gerbillinae. The data set is described as follows: Tested for its effect on Hypoxia induced neuronal damage. Format: functional.
Conditions: not given
The compound `Cl.c1ccc(C2(N3CCCCC3)CCCCC2)cc1` [PHENCYCLIDINE HYDROCHLORIDE] had a Damage score below 1.14.

The test system of a further data set is Gerbillinae. The experiment in a line: Tested for its effect on hippocampal neuronal damage in gerbils activity. Format: functional.
Conditions: not given
In turn, `Cl.c1ccc(C2(N3CCCCC3)CCCCC2)cc1` [PHENCYCLIDINE HYDROCHLORIDE] gave a Damage score of 1.06.
